# Data from the supplement of paper PMC10307832.
# Assays:
# Test in all cases: relative viability (nuclei count vs DMSO), 5 days (fraction); higher = more cells survive
# Dinaciclib + Dasatinib = compound: CCc1cnn2c(NCc3ccc[n+]([O-])c3)cc(N3CCCC[C@H]3CCO)nc12 [Dinaciclib] + Cc1nc(Nc2ncc(C(=O)Nc3c(C)cccc3Cl)s2)cc(N2CCN(CCO)CC2)n1 [Dasatinib] (partner 0.075 µM)
# Outline: (§1)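 Relative viability divides the nuclei count in treated wells by that in vehicle wells. Lung cancer cell lines were seeded in 1536-well plates, dosed by pin tool the next day, and fixed and stained after 5 days in one step with final 0.05% Triton X-100, 1% formaldehyde and 1 ug/ml Hoechst. Dosing was a single drug or a fixed anchor-drug dose plus five library-drug doses (not always all listed) in √10 steps, and values are medians of duplicate plates imaged at 4×.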
# Dinaciclib + Phenformin = compound: CCc1cnn2c(NCc3ccc[n+]([O-])c3)cc(N3CCCC[C@H]3CCO)nc12 [Dinaciclib] + N=C(N)NC(=N)NCCc1ccccc1 [Phenformin] (partner 250 µM)
# Outline: as §1
# Dinaciclib + Pictilisib = compound: CCc1cnn2c(NCc3ccc[n+]([O-])c3)cc(N3CCCC[C@H]3CCO)nc12 [Dinaciclib] + CS(=O)(=O)N1CCN(Cc2cc3nc(-c4cccc5[nH]ncc45)nc(N4CCOCC4)c3s2)CC1 [Pictilisib] (partner 1 µM)
# Outline: as §1
# Dinaciclib + Alpelisib = compound: CCc1cnn2c(NCc3ccc[n+]([O-])c3)cc(N3CCCC[C@H]3CCO)nc12 [Dinaciclib] + Cc1nc(NC(=O)N2CCC[C@H]2C(N)=O)sc1-c1ccnc(C(C)(C)C(F)(F)F)c1 [Alpelisib] (partner 2 µM)
# Outline: as §1
# Dinaciclib + Lapatinib = compound: CCc1cnn2c(NCc3ccc[n+]([O-])c3)cc(N3CCCC[C@H]3CCO)nc12 [Dinaciclib] + CS(=O)(=O)CCNCc1ccc(-c2ccc3ncnc(Nc4ccc(OCc5cccc(F)c5)c(Cl)c4)c3c2)o1 [Lapatinib] (partner 2 µM)
# Outline: as §1
Cell Line,relative viability (Dinaciclib + Dasatinib; first compound 0.009487 µM),relative viability (Dinaciclib + Dasatinib; first compound 0.03 µM),relative viability (Dinaciclib + Dasatinib; first compound 0.09487 µM),relative viability (Dinaciclib + Dasatinib; first compound 0.3 µM),relative viability (Dinaciclib + Phenformin; first compound 0.009487 µM),relative viability (Dinaciclib + Phenformin; first compound 0.03 µM),relative viability (Dinaciclib + Phenformin; first compound 0.09487 µM),relative viability (Dinaciclib + Phenformin; first compound 0.3 µM),relative viability (Dinaciclib + Pictilisib; first compound 0.009487 µM),relative viability (Dinaciclib + Pictilisib; first compound 0.03 µM),relative viability (Dinaciclib + Pictilisib; first compound 0.09487 µM),relative viability (Dinaciclib + Pictilisib; first compound 0.3 µM),relative viability (Dinaciclib + Alpelisib; first compound 0.009487 µM),relative viability (Dinaciclib + Alpelisib; first compound 0.03 µM),relative viability (Dinaciclib + Alpelisib; first compound 0.09487 µM),relative viability (Dinaciclib + Alpelisib; first compound 0.3 µM),relative viability (Dinaciclib + Lapatinib; first compound 0.009487 µM),relative viability (Dinaciclib + Lapatinib; first compound 0.03 µM),relative viability (Dinaciclib + Lapatinib; first compound 0.09487 µM),relative viability (Dinaciclib + Lapatinib; first compound 0.3 µM)
ChaGo-K-1,0.529,0.154,0.116,0.127,0.414,0.17,0.125,0.137,0.321,0.213,0.175,0.161,–,–,–,–,–,–,–,–
EKVX,0.548,0.415,0.159,0.223,0.239,0.218,0.162,0.091,0.407,0.227,0.12,0.113,0.862,0.449,0.11,0.122,0.229,0.118,0.118,0.116
EMC-BAC-2,0.312,0.117,0.13,0.109,0.472,0.199,0.13,0.166,0.621,0.303,0.136,0.15,0.765,0.227,0.113,0.112,0.85,0.598,0.165,0.157
EPLC-272H,0.381,0.089,0.0366,0.0325,0.344,0.122,0.0306,0.0277,0.218,0.0536,0.0465,0.046,0.828,0.542,0.0754,0.0887,1,0.104,0.0545,0.051
H3255,0.289,0.313,0.271,0.195,0.333,0.305,0.315,0.28,0.415,0.261,0.164,0.182,0.716,0.352,0.15,0.141,0.378,0.233,0.123,0.214
HARA,0.254,0.22,0.0491,0.0506,0.518,0.129,0.0472,0.0313,0.529,0.0709,0.0524,0.031,0.72,0.0726,0.0663,0.0442,0.604,0.0778,0.0593,0.0436
HCC-15,0.424,0.086,0.0767,0.095,0.352,0.115,0.107,0.103,0.637,0.117,0.0949,0.11,0.863,0.169,0.0978,0.0964,0.63,0.104,0.0985,0.0923
HCC-44,–,–,–,–,0.138,0.105,0.0633,0.0778,0.711,0.248,0.122,0.129,0.677,0.095,0.133,0.118,0.921,0.144,0.134,0.135
HCC-78,0.379,0.181,0.148,0.162,0.744,0.332,0.17,0.165,0.197,0.226,0.105,0.11,0.298,0.202,0.115,0.118,0.75,0.806,0.125,0.136
